Test system: fibroblasts (dermal papilla, connective sheath, dermal)
Test: Assaying of sulfated glycosaminoglycans in fibroblast culture (Blyscan)
Type: cell-based, human
Settings: 7 days
Experimental: The fibroblasts are cultured in DMEM medium, 10% foetal calf serum (Gibco, Invitrogen), 1 mM MEM pyruvate (Gibco, Invitrogen) and 25 units/ml of penicillin-streptomycin (Gibco, Invitrogen). The dermal papilla fibroblast (P6), connective sheath fibroblast (P6) and dermal fibroblast are then counted using a Coulter Counter Z2 (Beckman Coulter inc., Fullerton, USA) and seeded at 2×10^5 cells per well in a 12-well plate, with the wells containing 1.5 ml of medium alone, which is the “control” condition, or being treated with 3 mM of 1,5-anhydro-6,8-dideoxy-L-glucooctitol. After 7 days, the supernatant is recovered and stored at −80° C. until the GAGs are assayed. […]
The proteins present in the lysate are assayed using the Dc Protein assay kit (Biorad). The amount of glycosaminoglycans is measured in the supernatant and the lysate.
The glycosaminoglycans are assayed using the Blyscan glycosaminoglycan isolation & concentration kit (Biocolor, Newtownabbey, Northern Ireland) and the Blyscan sulfated glycosaminoglycan assay kit. […] Each sample to be measured is mixed with 700 μl of the cetylpyridinium chloride solution in a 1.5 ml centrifuge tube, and then incubated on a rotary mixer thermostated at 37° C., at 250 rpm, for 2 hours. […] The absorbance of the solution at 656 nm is measured using a polystyrene semi-microcuvette on a Biomate 5 spectrometer (Thermo). […]

CC(O)CC1OCC(O)C(O)C1O [1,5-anhydro-6,8-dideoxy-L-glucooctitol]
increase in amount of glycosaminoglycans secreted (relative to control (medium alone), 3 mM in method): up to 7 times | GAG synthesis by the fibroblasts (versus control (medium alone)): increase in GAG synthesis by the fibroblasts, proportional to the concentration

From patent US20100310488A1, “SELECTING/IDENTIFYING AND ADMINISTERING ACTIVE AGENTS USEFUL FOR MODIFYING THE SHAPE OF KERATIN/HAIR FIBERS” (L'OREAL, priority 2007, published 2010)
